The results in this text go back to patent US10765114B2, “4-amino-6-(pyridyl and 2-substitutedphenyl)-picolinates and 6-amino-2-(pyridyl and 2-substitutedphenyl)-pyrimidine-4-carboxylates and their use as herbicides” (Dow AgroSciences LLC, priority 2013, dated 2020).

One assay concerns ALOMY (blackgrass). In words: Post-Emergent Test III (Wheat and Barley). The conditions noted are these: for pest or weed control at 35 g/ha / pest or weed control at 70 g/ha / pest or weed control at 140 g/ha: Alopecurus myosuroides, post-emergence, 504 h, postemergence, read-out: Visual Growth Reduction (%) 21 Days After Application, ALOMY; for pest or weed control at 35 g/ha: 35 g ai/ha; for pest or weed control at 70 g/ha: 70 g ai/ha; for pest or weed control at 140 g/ha: 140 g ai/ha; for GR50, ALOMY: effective dose for growth reduction of 50 percent; for GR50, ALOMY / GR80, ALOMY: probit analysis; for GR80, ALOMY: effective dose for growth reduction of 80 percent. In kind it is in vivo, Alopecurus myosuroides. The method, then:
Seeds of the desired test plant species were planted in Sun Gro MetroMix® 306 planting mixture, which typically has a pH of 6.0 to 6.8 and an organic matter content of about 30 percent, in plastic pots with a surface area of 103.2 square centimeters (cm^2). When required to ensure good germination and healthy plants, a fungicide treatment and/or other chemical or physical treatment was applied. The plants were grown for 7-36 days in a greenhouse with an approximate 14 h photoperiod which was maintained at about 18° C. during the day and 17° C. during the night. Nutrients and water were added on a regular basis and supplemental lighting was provided with overhead metal halide 1000-Watt lamps as necessary. The plants were employed for testing when they reached the second or third true leaf stage.
A weighed amount, determined by the highest rate to be tested, of each test compound was placed in a 25 mL glass vial and was dissolved in 4 mL of a 97:3 v/v mixture of acetone and DMSO to obtain concentrated stock solutions. […] The concentrated stock solutions obtained were diluted with 20 mL of an aqueous mixture containing acetone, water, isopropyl alcohol, DMSO, Agri-Dex crop oil concentrate, and X-77 surfactant in a 48:39:10:1.5:1.5:0.02 v/v ratio to obtain spray solutions containing the highest application rates. Additional application rates were obtained by serial dilution of 12 mL of the high rate solution into a solution containing 2 mL of 97:3 v/v mixture of acetone and DMSO and 10 mL of an aqueous mixture containing acetone, water, isopropyl alcohol, DMSO, Agri-Dex crop oil concentrate, and X-77 surfactant in a 48:39:10:1.5:1.5:0.02 v/v ratio to obtain ½×, ¼×, ⅛× and 1/16× rates of the high rate. Compound requirements are based upon a 12 mL application volume at a rate of 187 liters per hectare (L/ha). Formulated compounds were applied to the plant material with an overhead Mandel track sprayer equipped with 8002E nozzles calibrated to deliver 187 L/ha over an application area of 0.503 square meters at a spray height of 18 inches (43 cm) above the average plant canopy height. Control plants were sprayed in the same manner with the solvent blank.
The treated plants and control plants were placed in a greenhouse as described above and watered by subirrigation to prevent wash-off of the test compounds. After 21 dAYS, the condition of the test plants as compared with that of the untreated plants was determined visually and scored on a scale of 0 to 100 percent where 0 corresponds to no injury and 100 corresponds to complete kill and presented as indicated in Table A.
By applying the well-accepted probit analysis as described by J. Berkson in Journal of the American Statistical Society, 48, 565 (1953) and by D. Finney in “Probit Analysis” Cambridge University Press (1952), herbicidal injury of a specific compound at various rates can be used to calculate GR10, GR20, GR50, GR80 and GR90 values, which are defined as growth reduction factors that correspond to the effective dose of herbicide required to provide plant growth reduction (GR) of 10 percent, 20 percent, 50 percent, 80 percent and 90 percent, respectively. Probit analysis was applied to data collected from multiple dose rates of individual compounds utilizing the procedures explained in the following examples. The analysis of those dose rates is captured in the following tables.

Another assay relates to LOLSS. In words: Post-Emergent Test III (Wheat and Barley). The conditions noted are these: for GR50, LOLSS: effective dose for growth reduction of 50 percent; for GR50, LOLSS / GR80, LOLSS: probit analysis; for GR80, LOLSS: effective dose for growth reduction of 80 percent; for pest or weed control at 35 g/ha / pest or weed control at 70 g/ha / pest or weed control at 140 g/ha: post-emergence, 504 h, postemergence, read-out: Visual Growth Reduction (%) 21 Days After Application, LOLSS; for pest or weed control at 35 g/ha: 35 g ai/ha; for pest or weed control at 70 g/ha: 70 g ai/ha; for pest or weed control at 140 g/ha: 140 g ai/ha. In kind it is in vivo. An outline of the steps:
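GR10-GR90 values were derived by probit analysis of visual injury (0 = no injury, 100 = complete kill versus untreated), rated 21 days after spraying. Two- to three-true-leaf plants were sprayed at 187 L/ha with serial rates (1× to 1/16×) in aqueous acetone/isopropanol/DMSO with crop oil and X-77. Greenhouse conditions were 18 °C day/17 °C night.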

For `COC(=O)c1nc(-c2ccc(C3CC3)nc2)c(F)c(N)c1Cl` [Compound 49], in the assay with ALOMY (blackgrass), the pest or weed control at 35 g/ha lay in the range of 0 to 29%; the pest or weed control at 70 g/ha lay within 30 to 44%; the pest or weed control at 140 g/ha was 45 to 59%; the “GR50, ALOMY” value is more than 140 g ai/ha. Besides, in the assay on ALOMY (blackgrass), the “GR80, ALOMY” value was more than 140 g ai/ha. Besides, in the assay on LOLSS, the “GR50, LOLSS” value is on record as 15 g ai/ha; the “GR80, LOLSS” value is reported as 31 g ai/ha; the pest or weed control at 35 g/ha lay within 95 to 100%; the pest or weed control at 70 g/ha was 85 to 94%. Also, the pest or weed control at 140 g/ha with LOLSS fell in the range of 85 to 94%.

Regarding `Nc1c(F)c(-c2ccc(C3CC3)nc2)nc(C(=O)O)c1Cl` [Compound 36, 4-amino-5-chloro-6′-cyclopropyl-3-fluoro-[2,3′-bipyridine]-6-carboxylic acid], in the assay on ALOMY (blackgrass), the pest or weed control at 35 g/ha was 0 to 29%; the pest or weed control at 70 g/ha is 30 to 44%; the “GR50, ALOMY” value is 126 g ai/ha; the “GR80, ALOMY” value was more than 140 g ai/ha. Also, in the assay on LOLSS, the “GR50, LOLSS” value was 44 g ai/ha; the “GR80, LOLSS” value is 131 g ai/ha; the pest or weed control at 35 g/ha is 45 to 59%; the pest or weed control at 70 g/ha lay in the range of 45 to 59%.

In the case of `COC(=O)c1nc(-c2ccc(C(F)(F)F)nc2)c(F)c(N)c1Cl` [Compound 59, methyl 4-amino-5-chloro-3-fluoro-6′-(trifluoromethyl)-[2,3′-bipyridine]-6-carboxylate], in the assay on ALOMY (blackgrass), the pest or weed control at 35 g/ha lay in the range of 30 to 44%; the pest or weed control at 70 g/ha lay within 60 to 74%; the “GR50, ALOMY” value turned out to be 48 g ai/ha; the “GR80, ALOMY” value stood at 80 g ai/ha. Also, in the assay with LOLSS, the “GR50, LOLSS” value is recorded as more than 140 g ai/ha; the “GR80, LOLSS” value is on record as more than 140 g ai/ha; the pest or weed control at 35 g/ha lay in the range of 0 to 29%; the pest or weed control at 70 g/ha was in the range of 30 to 44%.

In the case of `Cc1c(-c2ccc(C(F)(F)F)nc2)nc(C(=O)O)c(Cl)c1N` [Compound 51, 4-amino-5-chloro-3-methyl-6′-(trifluoromethyl)-[2,3′-bipyridine]-6-carboxylic acid], in the assay on ALOMY (blackgrass), the pest or weed control at 35 g/ha lay in the range of 0 to 29%; the pest or weed control at 70 g/ha lay in the range of 0 to 29%; the “GR50, ALOMY” value is given as more than 140 g ai/ha; the “GR80, ALOMY” value is listed as more than 140 g ai/ha. Also, in the assay on LOLSS, the pest or weed control at 35 g/ha was in the range of 0 to 29% and the pest or weed control at 70 g/ha fell in the range of 0 to 29%.

In the case of `COC(=O)c1nc(-c2ccc(Cl)c(F)c2OC)c(F)c(N)c1Cl` [Compound 39, methyl 4-amino-3-chloro-6-(4-chloro-3-fluoro-2-methoxyphenyl)-5-fluoropicolinate], in the assay with ALOMY (blackgrass), the pest or weed control at 35 g/ha lay within 0 to 29%; the pest or weed control at 70 g/ha fell in the range of 30 to 44%; the pest or weed control at 140 g/ha lay in the range of 30 to 44%; the “GR50, ALOMY” value was more than 140 g ai/ha. The “GR80, ALOMY” value in the assay on ALOMY (blackgrass) is more than 140 g ai/ha. For the same compound, in the assay on LOLSS, the pest or weed control at 35 g/ha fell in the range of 0 to 29%, the pest or weed control at 70 g/ha lay within 0 to 29% and the pest or weed control at 140 g/ha lay within 0 to 29%.

On to `COC(=O)c1nc(-c2ccc(OC(F)F)nc2)c(F)c(N)c1Cl` [Compound 71], for which, in the assay with ALOMY (blackgrass), the pest or weed control at 35 g/ha lay within 0 to 29%; the pest or weed control at 70 g/ha is 0 to 29%; the pest or weed control at 140 g/ha lay within 30 to 44%; the “GR50, ALOMY” value is more than 140 g ai/ha. The “GR80, ALOMY” value with ALOMY (blackgrass) is more than 140 g ai/ha. For the same compound, in the assay on LOLSS, the “GR50, LOLSS” value is reported as more than 140 g ai/ha; the “GR80, LOLSS” value is more than 140 g ai/ha; the pest or weed control at 35 g/ha lay within 0 to 29%; the pest or weed control at 70 g/ha is 0 to 29%. In the assay on LOLSS, the pest or weed control at 140 g/ha fell in the range of 30 to 44%.

`COC(=O)c1nc(-c2ccc(C(F)(F)F)nc2)c(Cl)c(N)c1Cl` [Compound 83]: in the assay with ALOMY (blackgrass), the pest or weed control at 35 g/ha fell in the range of 60 to 74%; the pest or weed control at 70 g/ha fell in the range of 75 to 84%; the “GR50, ALOMY” value was 25 g ai/ha; the “GR80, ALOMY” value is listed as 58 g ai/ha. In addition, in the assay with LOLSS, the “GR50, LOLSS” value is on record as 59 g ai/ha; the “GR80, LOLSS” value was 99 g ai/ha; the pest or weed control at 35 g/ha is 0 to 29%; the pest or weed control at 70 g/ha lay within 60 to 74%.

In the case of `COC(=O)c1nc(-c2ccc(Cl)c(F)c2OC)cc(N)c1Cl` [Compound 20], in the assay with ALOMY (blackgrass), the pest or weed control at 35 g/ha was in the range of 45 to 59%; the pest or weed control at 70 g/ha was 75 to 84%; the pest or weed control at 140 g/ha was 85 to 94%; the “GR50, ALOMY” value came out at 86 g ai/ha. Also, the “GR80, ALOMY” value in the assay with ALOMY (blackgrass) is listed as more than 140 g ai/ha. Besides, in the assay on LOLSS, the “GR50, LOLSS” value is on record as more than 140 g ai/ha; the “GR80, LOLSS” value is recorded as more than 140 g ai/ha; the pest or weed control at 35 g/ha lay within 0 to 29%; the pest or weed control at 70 g/ha was in the range of 0 to 29%. For the same compound, the pest or weed control at 140 g/ha in the assay with LOLSS lay within 30 to 44%.

For `Nc1c(F)c(-c2ccc(OC(F)F)nc2)nc(C(=O)O)c1Cl` [Compound 66], in the assay on ALOMY (blackgrass), the pest or weed control at 35 g/ha fell in the range of 0 to 29%; the pest or weed control at 70 g/ha lay in the range of 0 to 29%; the pest or weed control at 140 g/ha fell in the range of 45 to 59%; the “GR50, ALOMY” value came out at 140 g ai/ha. For the same compound, the “GR80, ALOMY” value with ALOMY (blackgrass) is given as more than 140 g ai/ha. In addition, in the assay with LOLSS, the “GR50, LOLSS” value was more than 140 g ai/ha; the “GR80, LOLSS” value is more than 140 g ai/ha; the pest or weed control at 35 g/ha lay within 0 to 29%; the pest or weed control at 70 g/ha is 0 to 29%. Moreover, the pest or weed control at 140 g/ha in the assay with LOLSS was in the range of 30 to 44%.

`Nc1c(Cl)c(C(=O)O)nc(-c2ccc(C(F)(F)F)nc2)c1Cl` [Compound 33]: in the assay with ALOMY (blackgrass), the pest or weed control at 35 g/ha lay within 60 to 74%; the pest or weed control at 70 g/ha was 75 to 84%; the pest or weed control at 140 g/ha was 85 to 94%; the “GR50, ALOMY” value was 37 g ai/ha. Further, in the assay with ALOMY (blackgrass), the “GR80, ALOMY” value came to 72 g ai/ha. For the same compound, in the assay on LOLSS, the “GR50, LOLSS” value is more than 140 g ai/ha; the “GR80, LOLSS” value is more than 140 g ai/ha; the pest or weed control at 35 g/ha lay in the range of 0 to 29%; the pest or weed control at 70 g/ha is 0 to 29%. Also, the pest or weed control at 140 g/ha with LOLSS was in the range of 30 to 44%.
